Results taken from ChEMBL document CHEMBL1201862, “PubChem BioAssay data set” (2004).
Activity calls are given as the source filed them.

Tests used:
[1] = biological target: Luciferin 4-monooxygenase (Photinus pyralis, UniProt P08659); assay: inhibition of purified Photinus pyralis luciferase – biochemical, luminescence, dose response (AID 1891)
[2] = Luminescence Cell-Based Dose Confirmation HTS to Identify Inhibitors of Platelet Dense Granule Release. [Related pubchem assays: 1663 (Primary HTS), 1678 (Summary of Project)]; assay type: functional
[3] = biological target: T1, Fatty acid synthase (Homo sapiens, UniProt P49327); assay: inhibition of human FAS-TE enzyme activity – biochemical, endpoint fluorescence intensity, uHTS hits, dose response (AID 624327); assay type: functional;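 also: fluorescence from hydrolysis of an O-methyl fluorescein acyl ester substrate by the enzyme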
[4] = biological target: T1, Fatty acid synthase; assay: inhibition of human FAS-TE enzyme activity – biochemical, kinetic fluorescence intensity, dose response (AID 624326); assay type: functional;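 also: rate of fluorescence rise from hydrolysis of a fluorogenic O-methyl fluorescein ester substrate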
[5] = biological target: FAD-linked sulfhydryl oxidase ALR (Homo sapiens, UniProt P55789); assay: ALR-catalysed DTT oxidation blockers – biochemical, H2O2 detection, luminescence, cherry-pick, dose response (AID 493248)
[6] = tested on: H9c2; assay: cells; assay type: functional, cell-based; conditions: Rattus norvegicus, H9c2, Myocardium;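 also: confirmatory concentration-response retest of ultra-high-throughput screening hits for modulation of myocardial damage; cell death induced by hydrogen peroxide oxidative stress; compound pretreatment for 60 min then peroxide exposure for 2 h; potency is for protecting the cells against peroxide damage rather than for killing them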
[7] = biological target: T2, Heat shock factor protein 1 (Mus musculus, UniProt P38532); assay: decrease of HSF1-responsive luciferase luminescence – cell-based, NIH3T3, dose retest, confirmation (AID 2382); assay type: functional;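 also: NIH3T3 fibroblasts with HSF1-driven luciferase reporter stressed by proteasome inhibitor MG132; luminescence from HSF1-driven luciferase expression after 8 hours of MG132 stress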
T2 sequence (P38532 whole entry): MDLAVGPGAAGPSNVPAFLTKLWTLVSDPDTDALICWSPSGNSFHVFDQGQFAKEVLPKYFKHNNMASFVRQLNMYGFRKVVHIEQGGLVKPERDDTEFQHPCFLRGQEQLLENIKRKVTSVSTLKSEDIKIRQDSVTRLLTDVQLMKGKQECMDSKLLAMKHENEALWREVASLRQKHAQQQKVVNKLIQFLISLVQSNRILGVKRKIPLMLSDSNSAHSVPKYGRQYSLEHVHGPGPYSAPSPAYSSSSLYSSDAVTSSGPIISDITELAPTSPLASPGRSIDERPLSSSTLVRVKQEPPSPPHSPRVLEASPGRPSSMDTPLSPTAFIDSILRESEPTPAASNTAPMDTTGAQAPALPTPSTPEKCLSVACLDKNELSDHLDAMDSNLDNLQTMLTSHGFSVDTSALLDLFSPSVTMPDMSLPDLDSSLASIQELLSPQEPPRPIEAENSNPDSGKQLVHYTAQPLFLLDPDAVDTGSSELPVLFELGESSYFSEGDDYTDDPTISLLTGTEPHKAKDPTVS

[8] = biological target: T3, Protein RecA (Mycobacterium tuberculosis, UniProt P9WHJ3); assay: Fluorescence Cell-Free Homogeneous Dose Retest to Identify Inhibitors of RecA-Intein Splicing Activity. [Related pubchem assays (depositor defined):AID2097, AID2223, AID489010, AID492950]; assay type: functional
T3 sequence (P9WHJ3 whole entry): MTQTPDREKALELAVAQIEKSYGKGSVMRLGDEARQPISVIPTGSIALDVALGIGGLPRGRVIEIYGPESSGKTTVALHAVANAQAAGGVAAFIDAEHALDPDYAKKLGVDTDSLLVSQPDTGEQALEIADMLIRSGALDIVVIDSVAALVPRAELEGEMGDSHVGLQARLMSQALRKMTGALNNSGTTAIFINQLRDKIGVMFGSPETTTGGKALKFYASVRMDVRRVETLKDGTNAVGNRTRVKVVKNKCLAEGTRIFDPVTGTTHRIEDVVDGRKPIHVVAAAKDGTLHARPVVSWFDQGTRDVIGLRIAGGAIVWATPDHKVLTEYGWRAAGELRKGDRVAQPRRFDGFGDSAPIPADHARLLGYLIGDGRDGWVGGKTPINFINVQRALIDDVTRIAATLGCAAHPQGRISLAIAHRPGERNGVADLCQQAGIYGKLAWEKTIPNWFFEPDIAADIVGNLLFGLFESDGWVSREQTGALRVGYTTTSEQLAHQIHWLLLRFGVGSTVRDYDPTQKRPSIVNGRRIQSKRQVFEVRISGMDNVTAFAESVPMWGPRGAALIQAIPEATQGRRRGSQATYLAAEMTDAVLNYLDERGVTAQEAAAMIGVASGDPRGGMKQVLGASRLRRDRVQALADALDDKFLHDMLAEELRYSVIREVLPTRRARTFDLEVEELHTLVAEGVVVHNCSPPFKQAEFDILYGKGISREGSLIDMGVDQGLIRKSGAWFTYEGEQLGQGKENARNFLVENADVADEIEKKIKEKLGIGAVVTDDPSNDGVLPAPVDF

[9] = biological target: T4, Replicative DNA helicase DnaB (Mycobacterium tuberculosis, UniProt P9WMR3); assay: DnaB intein splicing inhibitors, dose response, biochemical, cell-free fluorescence (AID 449749); assay type: functional
T4 sequence (P9WMR3 whole entry): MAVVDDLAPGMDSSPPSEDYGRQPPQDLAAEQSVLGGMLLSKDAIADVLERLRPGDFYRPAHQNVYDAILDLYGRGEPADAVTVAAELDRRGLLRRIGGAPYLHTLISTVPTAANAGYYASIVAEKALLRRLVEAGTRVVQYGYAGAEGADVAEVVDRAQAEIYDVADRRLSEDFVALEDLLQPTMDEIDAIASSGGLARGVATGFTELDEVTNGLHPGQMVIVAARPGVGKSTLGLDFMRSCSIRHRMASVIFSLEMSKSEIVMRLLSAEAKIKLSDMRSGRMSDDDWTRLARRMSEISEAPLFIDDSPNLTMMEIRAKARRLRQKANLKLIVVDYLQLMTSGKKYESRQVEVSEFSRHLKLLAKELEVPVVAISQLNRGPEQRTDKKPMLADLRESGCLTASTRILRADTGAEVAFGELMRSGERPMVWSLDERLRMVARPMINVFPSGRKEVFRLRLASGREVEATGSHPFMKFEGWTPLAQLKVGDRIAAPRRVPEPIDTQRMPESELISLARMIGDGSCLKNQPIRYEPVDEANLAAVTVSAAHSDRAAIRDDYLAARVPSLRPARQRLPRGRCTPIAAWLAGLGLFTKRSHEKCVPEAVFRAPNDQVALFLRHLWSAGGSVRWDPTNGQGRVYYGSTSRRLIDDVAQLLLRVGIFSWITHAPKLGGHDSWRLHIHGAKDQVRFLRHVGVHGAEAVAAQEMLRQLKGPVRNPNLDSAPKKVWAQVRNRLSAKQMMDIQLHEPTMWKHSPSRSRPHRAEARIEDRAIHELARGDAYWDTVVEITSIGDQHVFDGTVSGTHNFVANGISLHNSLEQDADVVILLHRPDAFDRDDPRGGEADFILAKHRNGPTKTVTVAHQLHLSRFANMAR

[10] = biological target: Genome polyprotein (dengue virus type 2, UniProt P29990); assay: flavivirus cap methylation enzyme inhibition – biochemical, confirmation dose response, primary screen (AID 588689); assay type: functional
[11] = luciferase reporter signal suppression in cells – H4 neuroglioma cells, luminescence, dose response (AID 1990); assay type: functional, cell-based
[12] = alpha-synuclein stem-loop luciferase translation blockers – H4 neuroglioma cells, luminescence, confirmation (AID 1988); assay type: functional, cell-based
[13] = Luminescence Cell-Based Dose Response HTS to Identify Inhibitors of 5'UTR Stem-Loop Driven Prion Protein mRNA Translation in H4 Neuroglioblastoma Cells. [Related pubchem assays: 1827 (Project Summary), 1813 (Primary HTS)]; assay type: functional
[14] = biological target: T5, Polyadenylate-binding protein 1 (Homo sapiens, UniProt P11940); assay: MLLE domain peptide-binding blockers, IC50 – biochemical, fluorescence polarization, FITC-PAM2 peptide, dose response (AID 602259); assay type: functional; conditions: read-out: IC50_Mean
[15] = biological target: T5, Polyadenylate-binding protein 1; assay: MLLE binding blockers, Cy5 peptide tracer – biochemical, fluorescence polarization, Cy5-PAM2 peptide, secondary, miRNA deadenylation inhibitor project, dose response (AID 602260); assay type: functional; conditions: read-out: IC50_Mean
[16] = biological target: Heat shock protein HSP 90-alpha (Homo sapiens, UniProt P07900); assay type: functional, organism-based

Chain of FAD-linked sulfhydryl oxidase ALR (P55789 whole entry): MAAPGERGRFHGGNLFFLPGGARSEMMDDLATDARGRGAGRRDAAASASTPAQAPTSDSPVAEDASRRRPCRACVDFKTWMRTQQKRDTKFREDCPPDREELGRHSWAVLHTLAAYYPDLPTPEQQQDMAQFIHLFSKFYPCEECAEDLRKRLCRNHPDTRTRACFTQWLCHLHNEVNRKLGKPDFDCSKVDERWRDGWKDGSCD
Chain of Luciferin 4-monooxygenase (P08659 whole entry): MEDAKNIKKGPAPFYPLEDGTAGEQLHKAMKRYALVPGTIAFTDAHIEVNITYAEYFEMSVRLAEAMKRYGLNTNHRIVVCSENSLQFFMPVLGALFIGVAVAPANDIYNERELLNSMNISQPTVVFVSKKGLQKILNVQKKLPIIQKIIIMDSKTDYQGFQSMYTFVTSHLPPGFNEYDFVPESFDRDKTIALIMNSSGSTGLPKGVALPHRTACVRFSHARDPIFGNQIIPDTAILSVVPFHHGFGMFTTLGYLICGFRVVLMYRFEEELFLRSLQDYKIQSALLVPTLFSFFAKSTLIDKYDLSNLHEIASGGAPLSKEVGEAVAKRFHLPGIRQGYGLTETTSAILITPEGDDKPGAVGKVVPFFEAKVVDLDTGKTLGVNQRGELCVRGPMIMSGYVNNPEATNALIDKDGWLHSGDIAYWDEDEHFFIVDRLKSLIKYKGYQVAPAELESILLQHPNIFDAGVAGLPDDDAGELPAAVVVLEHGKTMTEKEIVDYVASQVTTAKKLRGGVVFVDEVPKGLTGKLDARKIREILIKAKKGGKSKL
T1 sequence (P49327 whole entry): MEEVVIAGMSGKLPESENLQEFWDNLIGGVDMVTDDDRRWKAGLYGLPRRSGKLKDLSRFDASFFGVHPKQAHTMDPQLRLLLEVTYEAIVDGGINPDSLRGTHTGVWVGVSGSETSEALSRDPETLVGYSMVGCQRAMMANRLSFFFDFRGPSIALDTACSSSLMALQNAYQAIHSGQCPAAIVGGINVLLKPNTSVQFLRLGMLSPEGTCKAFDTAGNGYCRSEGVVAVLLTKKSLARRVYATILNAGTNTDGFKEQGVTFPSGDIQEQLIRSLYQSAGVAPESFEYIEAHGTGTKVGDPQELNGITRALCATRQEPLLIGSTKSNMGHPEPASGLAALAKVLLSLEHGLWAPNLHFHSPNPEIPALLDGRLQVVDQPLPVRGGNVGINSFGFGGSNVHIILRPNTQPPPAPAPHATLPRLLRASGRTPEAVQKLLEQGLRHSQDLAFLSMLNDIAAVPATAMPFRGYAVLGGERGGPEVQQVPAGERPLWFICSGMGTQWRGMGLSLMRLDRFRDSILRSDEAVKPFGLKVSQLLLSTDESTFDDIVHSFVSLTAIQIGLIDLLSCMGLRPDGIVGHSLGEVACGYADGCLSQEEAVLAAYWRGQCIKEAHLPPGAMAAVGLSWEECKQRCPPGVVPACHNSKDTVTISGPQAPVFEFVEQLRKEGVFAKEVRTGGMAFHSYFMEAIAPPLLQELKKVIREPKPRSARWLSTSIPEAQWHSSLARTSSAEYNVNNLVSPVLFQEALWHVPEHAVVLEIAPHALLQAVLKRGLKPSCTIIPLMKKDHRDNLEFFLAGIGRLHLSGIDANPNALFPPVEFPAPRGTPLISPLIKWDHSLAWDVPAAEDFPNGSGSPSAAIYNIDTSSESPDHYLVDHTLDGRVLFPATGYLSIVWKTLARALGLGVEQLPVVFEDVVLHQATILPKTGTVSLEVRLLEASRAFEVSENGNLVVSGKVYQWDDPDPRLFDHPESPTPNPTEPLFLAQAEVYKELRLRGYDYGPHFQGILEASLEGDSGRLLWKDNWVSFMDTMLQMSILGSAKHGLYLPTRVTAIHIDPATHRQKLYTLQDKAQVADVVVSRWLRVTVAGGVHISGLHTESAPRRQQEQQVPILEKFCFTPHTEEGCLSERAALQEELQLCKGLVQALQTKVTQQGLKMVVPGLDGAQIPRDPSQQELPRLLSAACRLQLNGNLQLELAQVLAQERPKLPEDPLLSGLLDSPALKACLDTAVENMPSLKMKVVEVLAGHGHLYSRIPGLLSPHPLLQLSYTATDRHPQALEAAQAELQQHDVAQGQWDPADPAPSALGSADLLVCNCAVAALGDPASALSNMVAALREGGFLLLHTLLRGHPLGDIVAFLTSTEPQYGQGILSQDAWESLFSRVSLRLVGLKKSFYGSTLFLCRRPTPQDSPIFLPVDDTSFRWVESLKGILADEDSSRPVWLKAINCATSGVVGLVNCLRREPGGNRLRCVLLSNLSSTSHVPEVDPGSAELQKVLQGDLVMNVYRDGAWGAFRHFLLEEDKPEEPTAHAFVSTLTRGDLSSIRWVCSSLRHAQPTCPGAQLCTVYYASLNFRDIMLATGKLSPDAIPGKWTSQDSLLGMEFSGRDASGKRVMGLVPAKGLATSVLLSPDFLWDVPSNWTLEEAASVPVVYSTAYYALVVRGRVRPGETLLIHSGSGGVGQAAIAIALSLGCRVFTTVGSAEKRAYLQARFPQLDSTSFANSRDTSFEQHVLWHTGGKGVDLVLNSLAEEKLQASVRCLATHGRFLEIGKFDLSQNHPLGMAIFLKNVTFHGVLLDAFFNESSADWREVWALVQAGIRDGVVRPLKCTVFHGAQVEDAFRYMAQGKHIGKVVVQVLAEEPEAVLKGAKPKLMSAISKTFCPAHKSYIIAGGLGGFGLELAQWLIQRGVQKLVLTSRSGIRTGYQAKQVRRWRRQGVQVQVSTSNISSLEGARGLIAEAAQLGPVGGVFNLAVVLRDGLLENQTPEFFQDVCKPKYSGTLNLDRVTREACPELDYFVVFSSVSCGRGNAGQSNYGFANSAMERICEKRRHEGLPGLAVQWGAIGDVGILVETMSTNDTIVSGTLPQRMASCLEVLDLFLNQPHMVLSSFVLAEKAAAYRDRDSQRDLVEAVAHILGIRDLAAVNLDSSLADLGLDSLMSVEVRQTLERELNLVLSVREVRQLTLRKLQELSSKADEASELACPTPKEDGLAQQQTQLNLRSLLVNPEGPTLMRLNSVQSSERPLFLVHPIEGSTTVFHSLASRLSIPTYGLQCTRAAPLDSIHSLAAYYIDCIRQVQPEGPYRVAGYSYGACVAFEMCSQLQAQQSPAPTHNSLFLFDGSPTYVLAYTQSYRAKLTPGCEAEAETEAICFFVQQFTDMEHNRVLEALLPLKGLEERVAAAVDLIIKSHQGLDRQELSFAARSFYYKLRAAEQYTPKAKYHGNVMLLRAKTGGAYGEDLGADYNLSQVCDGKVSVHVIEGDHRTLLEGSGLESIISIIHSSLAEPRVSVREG
T5 sequence (P11940 whole entry, the tested form may be a part): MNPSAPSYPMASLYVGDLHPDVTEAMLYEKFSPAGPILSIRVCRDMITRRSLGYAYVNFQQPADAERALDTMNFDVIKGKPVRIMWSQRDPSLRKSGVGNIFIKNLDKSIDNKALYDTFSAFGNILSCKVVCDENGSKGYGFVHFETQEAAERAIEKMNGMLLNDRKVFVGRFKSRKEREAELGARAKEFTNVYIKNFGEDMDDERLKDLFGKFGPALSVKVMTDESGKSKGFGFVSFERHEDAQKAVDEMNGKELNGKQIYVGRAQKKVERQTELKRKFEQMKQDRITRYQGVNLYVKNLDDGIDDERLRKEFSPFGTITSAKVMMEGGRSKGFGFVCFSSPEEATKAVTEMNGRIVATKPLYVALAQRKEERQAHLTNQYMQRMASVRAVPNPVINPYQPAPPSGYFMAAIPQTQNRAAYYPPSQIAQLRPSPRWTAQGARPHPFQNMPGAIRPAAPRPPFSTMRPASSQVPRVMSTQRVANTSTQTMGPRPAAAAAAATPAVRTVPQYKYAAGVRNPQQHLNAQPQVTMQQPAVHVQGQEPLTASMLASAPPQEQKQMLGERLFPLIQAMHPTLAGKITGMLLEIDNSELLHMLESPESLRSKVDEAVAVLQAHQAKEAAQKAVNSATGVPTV
Chain of Genome polyprotein (P29990 2492-3391 limits assumed): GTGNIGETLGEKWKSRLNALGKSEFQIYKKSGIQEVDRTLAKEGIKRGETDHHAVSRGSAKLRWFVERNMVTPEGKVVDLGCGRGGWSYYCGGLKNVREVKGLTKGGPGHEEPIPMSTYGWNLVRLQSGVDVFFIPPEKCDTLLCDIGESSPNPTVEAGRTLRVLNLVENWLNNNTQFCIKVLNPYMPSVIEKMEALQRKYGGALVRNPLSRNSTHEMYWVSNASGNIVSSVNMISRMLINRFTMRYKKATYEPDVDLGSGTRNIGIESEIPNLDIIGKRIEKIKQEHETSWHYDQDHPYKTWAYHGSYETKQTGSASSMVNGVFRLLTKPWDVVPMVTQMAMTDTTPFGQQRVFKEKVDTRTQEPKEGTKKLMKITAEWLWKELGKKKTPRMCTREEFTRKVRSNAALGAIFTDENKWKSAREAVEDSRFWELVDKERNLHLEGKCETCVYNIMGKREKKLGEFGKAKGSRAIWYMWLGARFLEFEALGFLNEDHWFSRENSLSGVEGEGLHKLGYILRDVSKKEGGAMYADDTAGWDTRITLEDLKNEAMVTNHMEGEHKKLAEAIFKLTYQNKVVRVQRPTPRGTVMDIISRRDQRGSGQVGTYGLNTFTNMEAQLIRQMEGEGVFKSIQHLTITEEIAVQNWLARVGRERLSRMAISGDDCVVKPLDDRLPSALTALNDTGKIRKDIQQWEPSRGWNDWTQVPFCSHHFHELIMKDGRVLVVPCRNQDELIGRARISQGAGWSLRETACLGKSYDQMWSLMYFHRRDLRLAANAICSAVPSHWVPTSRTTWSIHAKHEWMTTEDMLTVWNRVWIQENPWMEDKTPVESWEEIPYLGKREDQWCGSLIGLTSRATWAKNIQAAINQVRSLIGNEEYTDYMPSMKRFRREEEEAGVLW

## COc1cccc(N2CCN(Cc3ccc(Cl)cc3)CC2)c1
[1]
  EC50: > 112 µM (not active)
[2]
  EC50: > 112 µM (not active)

## CCOC(=O)CCSc1nc2c(c(C(F)(F)F)c1C#N)CCC2
[3]
  IC50: 7.74 µM (active)
[4]
  IC50: 8.57 µM (active)

## COc1ccc(Cl)cc1-c1cc(C(=O)NCc2ccc(C(F)(F)F)cc2)[nH]n1
[3]
  IC50: 15.4 µM (active)
[4]
  IC50: 17.1 µM (active)

## Cc1cccc(-n2c(CCn3nc(C)c([N+](=O)[O-])c3C)n[nH]c2=S)c1
[5]
  AC50: 4.3 µM (active)

## COc1ccc(CN2CCN(C(=O)Cn3nc(C(=O)O)c4ccccc4c3=O)CC2)cc1F
[1]
  EC50: > 112 µM (not active)
[2]
  EC50: 7.7 µM (active)

## Cn1c(SCc2cccc(Cl)c2)nc(C(F)(F)F)cc1=O
[3]
  IC50: 18.4 µM (active)
[4]
  IC50: 12.2 µM (active)

## COc1ccccc1C(=O)Nc1ccc(C2=NNC(=O)CC2C)cc1 (stereo not given)
[1]
  EC50: > 112 µM (not active)
[2]
  EC50: 0.361 µM (active)

## CCN(CC(=O)Nc1c(F)cccc1F)C(=O)Cc1nnc(O)c2ccccc12
[6]
  IC50: > 79 µM (inactive)
[7]
  EC50: > 195 µM (not active)

## O=C1C(Cl)=C(N2CCCCC2)C(=O)N1c1ccccc1
[8]
  EC50: 3.22 µM (active)
[9]
  AC50: 8.22 µM (active)
[10]
  IC50: 66.9 µM (active)

## Cc1noc(NS(=O)(=O)c2ccc(NC(=O)c3cnc4n(c3=O)CCS4)cc2)c1C
[5]
  AC50: 0.255 µM (active)

## O=C(CCc1nc(O)c2ccccc2n1)Nc1ccc(F)cc1
[6]
  IC50: > 79 µM (inactive)

## Cc1ccc(S(=O)(=O)N2CCN=C2SCc2cccnc2)cc1
[5]
  AC50: 0.046 µM (active)

## CCCCOc1ccc(C(=O)NCC(=O)N(C)Cc2nc(O)c3ccccc3n2)cc1
[6]
  IC50: > 79 µM (inactive)

## CC1CCCN(C(=O)COC(=O)c2cc([N+](=O)[O-])ccc2N2CCOCC2)C1 (stereo not given)
[3]
  IC50: 2.27 µM (active)
[4]
  IC50: 1.91 µM (active)

## O=C(NCc1cccnc1)C(=O)NCC(c1ccco1)N1CCN(c2ccccc2)CC1 (stereo not given)
[5]
  AC50: 2.78 µM (active)

## COc1cc2nc(C3CCC3)nc(N3CCN(c4ccccn4)CC3)c2cc1OC
[11]
  EC50: 15.1 µM (active)
[6]
  IC50: > 79 µM (inactive)
[12]
  EC50: 15.2 µM (active)
[13]
  EC50: 14.6 µM (active)

## COCCCNC(=O)/C(C#N)=C1\N=C(NC(=O)c2cccs2)c2ccccc21
[6]
  IC50: > 79 µM (inactive)

## SC1=NC2(CCCCC2)NN1c1ccccc1
[5]
  AC50: 1.79 µM (active)

## O=C(CNC(=O)c1ccccc1F)N/N=C/c1cc(Br)ccc1OC(=O)/C=C/c1ccco1
[6]
  IC50: > 79 µM (inactive)

## O=C(COC(=O)c1cc([N+](=O)[O-])ccc1N1CCOCC1)Nc1ccc(Cl)cc1
[3]
  IC50: 2.23 µM (active)
[4]
  IC50: 1.96 µM (active)

## CC1Cc2nc(SCC(=O)N3CCCc4ccccc43)n(C)c(=O)c2S1 (stereo not given)
[1]
  EC50: > 112 µM (not active)
[2]
  EC50: > 112 µM (not active)

## O=C(Nc1ccn(Cc2ccc(F)cc2)n1)c1ccncc1
[1]
  EC50: > 112 µM (not active)
[2]
  EC50: > 112 µM (not active)

## O=C(O)CN1C(=O)/C(=C2\SC(=S)N(C(Cc3ccccc3)C(=O)O)C2=O)c2ccccc21 (stereo not given)
[14]
  IC50: > 66 µM (inactive)
[10]
  IC50: 42 µM (active)
[15]
  IC50: > 66 µM (inactive)

## NC(=O)N1CCN(C(=O)c2ccco2)CC1
[1]
  EC50: > 112 µM (not active)
[2]
  EC50: > 112 µM (not active)

## Cc1ccc(S(=O)(=O)N2CCN(C(=O)COC(=O)c3cc([N+](=O)[O-])ccc3NCCO)CC2)c(C)c1
[3]
  IC50: 6.04 µM (active)
[4]
  IC50: 2.7 µM (active)

## Cc1cc(F)ccc1NC(=O)c1cc(S(=O)(=O)N2CCOCC2)cn1C
[1]
  EC50: > 112 µM (not active)
[2]
  EC50: > 112 µM (not active)

## O=C(NC12CC3CC(CC(C3)C1)C2)c1cc([N+](=O)[O-])ccc1N1CCOCC1
[3]
  IC50: 24.9 µM (inactive)
[4]
  IC50: 14.7 µM (active)

## O=C(CCN1C(=O)C2C3CCC(C3)C2C1=O)Nc1ccccc1Cl (stereo not given)
[1]
  EC50: > 112 µM (not active)
[2]
  EC50: > 112 µM (not active)

## CCCc1cc(=O)oc2cc(OCc3ccc(C(=O)O)cc3)ccc12
[16]
  AC50: 3.75 µM (active)

## Cc1ccccc1C(=O)OCn1nnc2ccccc2c1=O
[1]
  EC50: > 112 µM (not active)
[2]
  EC50: 16.2 µM (active)

## COc1cc(/C=N/NC(=O)c2cccnc2)ccc1OS(=O)(=O)c1ccc(F)cc1
[6]
  IC50: 7.92 µM (active)

## CC(C)=NNc1nc(-c2ccccc2)cs1
[5]
  AC50: 0.601 µM (active)

## COc1cccc(-c2ccc(SCC(=O)N3CCN(c4ccccc4)CC3)nn2)c1
[6]
  IC50: 16.1 µM (active)

## Cc1cc(C)c([N+](=O)[O-])cc1NCC(=O)N1CCN(c2ccccc2)CC1
[3]
  IC50: 9.53 µM (active)
[4]
  IC50: 6.55 µM (active)

## COCCNC(=O)COC(=O)c1ccc(OCC(=O)Nc2ccccc2OC)c(OC)c1
[6]
  IC50: > 79 µM (inactive)

## Cn1c(S)nnc1CCNC(=O)OC(C)(C)C
[5]
  AC50: 2.79 µM (active)

## COc1ccc(CNC(=O)C[C@H]2C[C@H](C(=O)N3CCOCC3)[C@@]3(CCC4CCCC4)c4[nH]c5ccc(Cl)cc5c4CCN3C2=O)cc1OC
[3]
  IC50: 1.71 µM (active)
[4]
  IC50: 0.878 µM (active)

## COc1cc(C(=O)Nc2ccc(NC(=O)c3ccco3)nc2)cc(OC)c1OC
[6]
  IC50: 21.4 µM (active)

## CC1Cc2ccccc2N1C(=O)Cn1nc(C(=O)O)c2ccccc2c1=O (stereo not given)
[6]
  IC50: 13.7 µM (active)
